This is an account of results in patent publication US8524745B2 (Allergan, Inc., priority 2011, dated 2013).

T1 sequence (P41597 whole entry, species assumed): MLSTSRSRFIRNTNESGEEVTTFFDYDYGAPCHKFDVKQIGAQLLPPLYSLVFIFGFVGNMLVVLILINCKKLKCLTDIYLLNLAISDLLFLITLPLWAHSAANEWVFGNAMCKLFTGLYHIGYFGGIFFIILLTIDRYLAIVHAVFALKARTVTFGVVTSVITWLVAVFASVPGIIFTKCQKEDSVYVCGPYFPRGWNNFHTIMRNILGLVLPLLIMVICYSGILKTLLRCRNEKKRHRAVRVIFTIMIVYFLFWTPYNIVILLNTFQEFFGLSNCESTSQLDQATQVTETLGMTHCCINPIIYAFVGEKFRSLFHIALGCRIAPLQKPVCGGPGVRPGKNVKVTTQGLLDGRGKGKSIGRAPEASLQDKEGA

The experiment has as its target T1, CCR2 (Homo sapiens, UniProt P41597).
T1 construct: expressed in transfected cells
The experiment in a line: CCR2 calcium activity assay on FLIPR Tetra in HEK-Gqi5 cells stably expressing CCR2. The experiment is classed as cell-based. As to the method:
HEK-Gqi5 cells stably expressing CCR2 were cultured in (DMEM high glucose, 10% FBS, 1% PSA, 400 μg/ml geneticin and 50 μg/ml hygromycin. Appropriate positive control chemokines (MCP-1, MIP1A or RANTES) was used as the positive control agonist for screening compound-induced calcium activity assayed on the FLIPR^Tetra. The drug plates were prepared in 384-well microplates using the EP3 and the MuItiPROBE robotic liquid handling systems. Compounds were synthesized and tested for CCR2 activity.
Consider `CSc1cccc(NS(=O)(=O)c2ccc3c(c2)c(=O)sn3C)c1` [1-methyl-N-[3-(methylthio)phenyl]-3-oxo-1,3-dihydro-2,1-benzisothiazole-5-sulfonamide], for which the “CCR2 % ANTAG” value was 86% and the IC50 turned out to be 1.19 µM.

On to `Cn1sc(=O)c2cc(S(=O)(=O)NCC(C)(C)NS(=O)(=O)c3cccs3)ccc21` [1-methyl-N-{2-methyl-2-[(2-thienylsulfonyl)amino]propyl}-3-oxo-1,3-dihydro-2,1-benzisothiazole-5-sulfonamide], for which the “CCR2 % ANTAG” value worked out at 30%.

With `Cc1cccc(NS(=O)(=O)c2ccc3c(c2)c(=O)sn3C)c1NS(=O)(=O)c1cccs1` [1-methyl-N-{3-methyl-2-[(2-thienylsulfonyl)amino]phenyl}-3-oxo-1,3-dihydro-2,1-benzisothiazole-5-sulfonamide], the “CCR2 % ANTAG” value came out at 86%.

Regarding `Cc1ccc(NS(=O)(=O)c2ccc3c(c2)c(=O)sn3C)c(NS(=O)(=O)c2cccs2)c1` [1-methyl-N-{4-methyl-2-[(2-thienylsulfonyl)amino]phenyl}-3-oxo-1,3-dihydro-2,1-benzisothiazole-5-sulfonamide], the “CCR2 % ANTAG” value was found to be 99% and the IC50 stood at 0.563 µM.

On to `Cc1ccc(NS(=O)(=O)c2cccs2)c(NS(=O)(=O)c2ccc3c(c2)c(=O)sn3C)c1` [1-methyl-N-{5-methyl-2-[(2-thienylsulfonyl)amino]phenyl}-3-oxo-1,3-dihydro-2,1-benzisothiazole-5-sulfonamide], for which the “CCR2 % ANTAG” value is recorded as 102% and the IC50 was 0.377 µM.

As for `Cn1sc(=O)c2cc(S(=O)(=O)Nc3cccc4c3OCO4)ccc21` [N-1,3-benzodioxol-4-yl-1-methyl-3-oxo-1,3-dihydro-2,1-benzisothiazole-5-sulfonamide], the “CCR2 % ANTAG” value is on record as 73% and the 50% inhibitory concentration (IC50) turned out to be 1.94 µM.

Turning to `Cn1sc(=O)c2cc(S(=O)(=O)Nc3cccc4c3OC(F)(F)O4)ccc21` [N-(2,2-difluoro-1,3-benzodioxol-4-yl)-1-methyl-3-oxo-1,3-dihydro-2,1-benzisothiazole-5-sulfonamide], the “CCR2 % ANTAG” value is recorded as 80% and the IC50 worked out at 1 µM.

As for `Cn1sc(=O)c2cc(S(=O)(=O)Nc3cccc4c3OCCO4)ccc21` [N-(2,3-dihydro-1,4-benzodioxin-5-yl)-1-methyl-3-oxo-1,3-dihydro-2,1-benzisothiazole-5-sulfonamide], the “CCR2 % ANTAG” value is listed as 76% and the IC50 stood at 1.45 µM.

Regarding `COc1cccc(NS(=O)(=O)c2ccc3c(c2)c(=O)sn3C)c1OC` [N-(2,3-dimethoxyphenyl)-1-methyl-3-oxo-1,3-dihydro-2,1-benzisothiazolesulfonamide], the “CCR2 % ANTAG” value is 55% and the IC50 worked out at 3.83 µM.

As to `Cn1sc(=O)c2cc(S(=O)(=O)Nc3ccccc3NS(=O)(=O)c3cc(Cl)ccc3Cl)ccc21` [N-(2-{[(2,5-dichlorophenyl)sulfonyl]amino}phenyl)-1-methyl-3-oxo-1,3-dihydro-2,1-benzisothiazole-5-sulfonamide], the “CCR2 % ANTAG” value worked out at 99% and the concentration for half-maximal inhibition (IC50) is 1.81 µM.

Consider `Cn1sc(=O)c2cc(S(=O)(=O)Nc3ccccc3NS(=O)(=O)c3ccccc3Cl)ccc21` [N-(2-{[(2-chlorophenyl)sulfonyl]amino}phenyl)-1-methyl-3-oxo-1,3-dihydro-2,1-benzisothiazole-5-sulfonamide], for which the “CCR2 % ANTAG” value was determined as 84% and the IC50 was determined as 1.35 µM.

Take `Cn1sc(=O)c2cc(S(=O)(=O)Nc3ccccc3NS(=O)(=O)c3ccccc3F)ccc21` [N-(2-{[(2-fluorophenyl)sulfonyl]amino}phenyl)-1-methyl-3-oxo-1,3-dihydro-2,1-benzisothiazole-5-sulfonamide]: the “CCR2 % ANTAG” value worked out at 103% and the half-inhibitory concentration (IC50) came to 0.36 µM.

For `Cn1sc(=O)c2cc(S(=O)(=O)Nc3ccccc3NS(=O)(=O)c3ccc(Cl)c(Cl)c3)ccc21` [N-(2-{[(3,4-dichlorophenyl)sulfonyl]amino}phenyl)-1-methyl-3-oxo-1,3-dihydro-2,1-benzisothiazole-5-sulfonamide], the “CCR2 % ANTAG” value stood at 92% and the IC50 was determined as 0.522 µM.

Take `Cn1sc(=O)c2cc(S(=O)(=O)Nc3ccccc3NS(=O)(=O)c3cc(Cl)cc(Cl)c3)ccc21` [N-(2-{[(3,5-dichlorophenyl)sulfonyl]amino}phenyl)-1-methyl-3-oxo-1,3-dihydro-2,1-benzisothiazole-5-sulfonamide]: the “CCR2 % ANTAG” value is on record as 95% and the IC50 was 2.57 µM.

Turning to `Cn1sc(=O)c2cc(S(=O)(=O)Nc3ccccc3NS(=O)(=O)c3cc(F)cc(F)c3)ccc21` [N-(2-{[(3,5-difluorophenyl)sulfonyl]amino}phenyl)-1-methyl-3-oxo-1,3-dihydro-2,1-benzisothiazole-5-sulfonamide], the “CCR2 % ANTAG” value is recorded as 96% and the IC50 came to 0.438 µM.

As to `Cn1sc(=O)c2cc(S(=O)(=O)Nc3ccccc3NS(=O)(=O)c3cccc(F)c3)ccc21` [N-(2-{[(3-fluorophenyl)sulfonyl]amino}phenyl)-1-methyl-3-oxo-1,3-dihydro-2,1-benzisothiazole-5-sulfonamide], the “CCR2 % ANTAG” value is 100% and the half-inhibitory concentration (IC50) is 2.42 µM.

As to `Cn1sc(=O)c2cc(S(=O)(=O)Nc3ccccc3NS(=O)(=O)c3cc(Cl)c(Cl)s3)ccc21` [N-(2-{[(4,5-dichloro-2-thienyl)sulfonyl]amino}phenyl)-1-methyl-3-oxo-1,3-dihydro-2,1-benzisothiazole-5-sulfonamide], the “CCR2 % ANTAG” value was 89% and the concentration for half-maximal inhibition (IC50) was 0.359 µM.

Take `Cn1sc(=O)c2cc(S(=O)(=O)Nc3ccccc3NS(=O)(=O)c3ccc(Cl)cc3)ccc21` [N-(2-{[(4-chlorophenyl)sulfonyl]amino}phenyl)-1-methyl-3-oxo-1,3-dihydro-2,1-benzisothiazole-5-sulfonamide]: the “CCR2 % ANTAG” value amounted to 99% and the IC50 came to 1.08 µM.

`COc1ccc(S(=O)(=O)Nc2ccccc2NS(=O)(=O)c2ccc3c(c2)c(=O)sn3C)cc1` [N-(2-{[(4-methoxyphenyl)sulfonyl]amino}phenyl)-1-methyl-3-oxo-1,3-dihydro-2,1-benzisothiazole-5-sulfonamide]: the “CCR2 % ANTAG” value is 67% and the 50% inhibitory concentration (IC50) is 2.45 µM.

For `Cn1sc(=O)c2cc(S(=O)(=O)Nc3ccccc3NS(=O)(=O)c3ccc(Cl)s3)ccc21` [N-(2-{[(5-chloro-2-thienyl)sulfonyl]amino}phenyl)-1-methyl-3-oxo-1,3-dihydro-2,1-benzisothiazole-5-sulfonamide], the “CCR2 % ANTAG” value came out at 104% and the concentration for half-maximal inhibition (IC50) stood at 0.513 µM.

Take `Cn1sc(=O)c2cc(S(=O)(=O)Nc3ccc(Cl)c(Cl)c3)ccc21` [N-(3,4-dichlorophenyl)-1-methyl-3-oxo-1,3-dihydro-2,1-benzisothiazole-5-sulfonamide]: the “CCR2 % ANTAG” value was 94.08% and the IC50 stood at 1.18 µM.

With `Cn1sc(=O)c2cc(S(=O)(=O)Nc3cccc(Cl)c3)ccc21` [N-(3-chlorophenyl)-1-methyl-3-oxo-1,3-dihydro-2,1-benzisothiazole-5-sulfonamide], the “CCR2 % ANTAG” value came to 84%.

Consider `COc1cccc(NS(=O)(=O)c2ccc3c(c2)c(=O)sn3C)c1` [N-(3-methoxyphenyl)-1-methyl-3-oxo-1,3-dihydro-2,1-benzisothiazole-5-sulfonamide], for which the “CCR2 % ANTAG” value stood at 84% and the IC50 was found to be 2.45 µM.
